Laboratory results as given in patent US9079895B2, “Morpholino compounds, uses and methods” (University of Dundee, priority 2012, dated 2015).

Experiments:
Settings in all cases: average of at least two experiments
[1] = target: 5HT1d receptor (Homo sapiens (Human), UniProt P28221); test: Secondary radioligand binding assay, 5HT1d; set-up: key to Ki 5HT1d: “—” indicates that a binding interaction was not detected;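 also: competition binding against a radioligand on membranes from transfected cell lines, 1.5 h at room temperature, filter-retained radioactivity counted by liquid scintillation, total binding plotted versus log competitor concentration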
5HT1d receptor, sequence (P28221 whole entry): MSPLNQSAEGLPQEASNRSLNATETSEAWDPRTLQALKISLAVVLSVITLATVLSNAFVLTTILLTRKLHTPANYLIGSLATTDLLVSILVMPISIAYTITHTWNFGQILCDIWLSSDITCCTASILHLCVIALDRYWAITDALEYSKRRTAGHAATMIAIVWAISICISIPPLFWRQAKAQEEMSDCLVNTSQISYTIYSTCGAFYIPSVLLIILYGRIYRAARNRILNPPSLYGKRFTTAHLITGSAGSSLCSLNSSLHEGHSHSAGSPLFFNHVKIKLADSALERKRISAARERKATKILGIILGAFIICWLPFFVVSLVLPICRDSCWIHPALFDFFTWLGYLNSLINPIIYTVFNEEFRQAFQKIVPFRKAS
Protocol: (§9) Assay Buffer: Standard Binding Buffer (50 mM Tris-HCl, 10 mM MgCl2, 1 mM EDTA, pH 7.4)
(§10) Membrane Fraction Source: Transiently or stably transfected cell lines (e.g., HEK293, COS, CHO, NIH3T3)

[2] = target: 5HT1e receptor (Homo sapiens (Human), UniProt P28566); test: Secondary radioligand binding assay, 5HT1e; set-up: key: “—” indicates that a binding interaction was not detected;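 also: competition binding against a radioligand on membranes from transfected cell lines, 1.5 h at room temperature, bound radioactivity counted by liquid scintillation after filtration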
5HT1e receptor, sequence (P28566 whole entry): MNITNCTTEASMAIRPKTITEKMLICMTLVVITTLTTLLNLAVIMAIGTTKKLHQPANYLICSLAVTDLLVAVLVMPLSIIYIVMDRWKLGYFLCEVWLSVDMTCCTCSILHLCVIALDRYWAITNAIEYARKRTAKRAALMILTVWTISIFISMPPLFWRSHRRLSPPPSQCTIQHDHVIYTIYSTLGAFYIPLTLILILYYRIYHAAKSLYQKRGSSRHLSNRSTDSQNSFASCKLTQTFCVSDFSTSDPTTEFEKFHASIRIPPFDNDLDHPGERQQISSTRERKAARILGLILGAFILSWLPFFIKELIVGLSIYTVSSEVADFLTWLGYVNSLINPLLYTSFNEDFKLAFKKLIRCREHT

[3] = target: 5HT2b receptor (Homo sapiens (Human), UniProt P41595); test: Secondary radioligand binding assay, 5HT2b; set-up: key to Ki 5HT2b: “—” indicates that a binding interaction was not detected;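 also: competition binding against a radioligand on membranes from transfected cell lines, 1.5 h incubation at room temperature, filter-retained radioactivity counted by liquid scintillation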
5HT2b receptor, sequence (P41595 whole entry): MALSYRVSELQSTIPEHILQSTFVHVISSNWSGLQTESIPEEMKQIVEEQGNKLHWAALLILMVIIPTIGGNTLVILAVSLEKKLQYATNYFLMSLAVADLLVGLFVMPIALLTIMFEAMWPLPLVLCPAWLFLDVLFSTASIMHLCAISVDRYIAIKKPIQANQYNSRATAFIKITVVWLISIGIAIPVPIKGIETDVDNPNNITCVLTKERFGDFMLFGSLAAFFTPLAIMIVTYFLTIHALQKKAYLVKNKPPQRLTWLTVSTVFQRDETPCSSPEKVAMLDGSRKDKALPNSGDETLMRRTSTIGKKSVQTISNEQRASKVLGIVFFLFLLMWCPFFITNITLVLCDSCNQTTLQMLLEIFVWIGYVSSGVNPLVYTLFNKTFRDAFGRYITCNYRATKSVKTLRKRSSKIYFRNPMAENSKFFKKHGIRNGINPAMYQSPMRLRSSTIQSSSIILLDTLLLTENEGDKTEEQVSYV
Protocol: as §9, §10

[4] = target: 5HT3 receptor (Homo sapiens (Human), UniProt P46098); test: Secondary radioligand binding assay, 5HT3; set-up: key: “—” indicates that a binding interaction was not detected;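 also: radioligand competition binding on membranes from transfected cell lines, 1.5 h incubation at room temperature, filter-retained radioactivity measured by liquid scintillation counting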
5HT3 receptor, sequence (P46098 24-478): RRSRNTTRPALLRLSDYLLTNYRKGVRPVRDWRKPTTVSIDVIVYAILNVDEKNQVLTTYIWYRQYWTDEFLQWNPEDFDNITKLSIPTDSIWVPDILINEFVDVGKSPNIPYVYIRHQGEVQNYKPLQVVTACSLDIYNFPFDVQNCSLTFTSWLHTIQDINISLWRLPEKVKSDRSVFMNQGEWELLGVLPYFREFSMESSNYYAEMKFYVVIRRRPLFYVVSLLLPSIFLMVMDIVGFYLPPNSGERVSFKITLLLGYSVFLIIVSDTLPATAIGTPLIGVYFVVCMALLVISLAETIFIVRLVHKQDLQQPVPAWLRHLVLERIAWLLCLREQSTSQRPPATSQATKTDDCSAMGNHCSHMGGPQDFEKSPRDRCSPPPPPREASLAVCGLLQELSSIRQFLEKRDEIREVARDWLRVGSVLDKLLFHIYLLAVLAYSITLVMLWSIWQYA

[5] = target: 5HT5 receptor (Homo sapiens (Human), UniProt P47898); test: Secondary radioligand binding assay, 5HT5; set-up: key: “—” indicates that a binding interaction was not detected;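 also: competitive radioligand displacement on membranes from transfected cell lines, incubated at room temperature in the dark, filter-retained radioactivity counted by liquid scintillation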
5HT5 receptor, sequence (P47898 whole entry): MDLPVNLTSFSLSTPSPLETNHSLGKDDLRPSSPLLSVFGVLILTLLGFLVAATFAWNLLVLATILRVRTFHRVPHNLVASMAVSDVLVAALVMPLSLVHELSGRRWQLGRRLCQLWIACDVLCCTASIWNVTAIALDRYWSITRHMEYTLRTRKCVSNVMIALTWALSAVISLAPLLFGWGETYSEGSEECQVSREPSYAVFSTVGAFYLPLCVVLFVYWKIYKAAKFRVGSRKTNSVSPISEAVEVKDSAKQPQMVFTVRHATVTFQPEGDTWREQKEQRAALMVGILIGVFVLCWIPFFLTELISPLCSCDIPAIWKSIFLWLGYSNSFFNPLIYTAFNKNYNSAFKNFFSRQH
Protocol: as §9, §10

[6] = target: 5HT6 receptor (Homo sapiens (Human), UniProt P50406); test: Secondary radioligand binding assay, 5HT6; set-up: key: “—” indicates that a binding interaction was not detected;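 also: competition displacement of radioligand from membranes of transfected cell lines expressing the receptor, 1.5 h at room temperature, bound radioactivity counted by scintillation after filtration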
5HT6 receptor, sequence (P50406 whole entry): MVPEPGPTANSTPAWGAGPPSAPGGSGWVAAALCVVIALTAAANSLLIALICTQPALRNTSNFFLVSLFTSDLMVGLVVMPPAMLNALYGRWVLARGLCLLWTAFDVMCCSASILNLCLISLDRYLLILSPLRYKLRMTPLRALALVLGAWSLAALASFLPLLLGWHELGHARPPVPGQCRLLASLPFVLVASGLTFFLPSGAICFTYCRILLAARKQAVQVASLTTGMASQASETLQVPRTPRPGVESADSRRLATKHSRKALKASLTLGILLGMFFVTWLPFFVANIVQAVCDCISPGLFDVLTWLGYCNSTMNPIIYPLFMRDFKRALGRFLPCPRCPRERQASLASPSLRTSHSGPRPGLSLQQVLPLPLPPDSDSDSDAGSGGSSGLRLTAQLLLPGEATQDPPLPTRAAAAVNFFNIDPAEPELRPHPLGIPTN
Protocol: as §9, §10

[7] = target: 5HT7 receptor (Homo sapiens (Human), UniProt P34969); test: Secondary radioligand binding assay, 5HT7; set-up: key to Ki 5HT7: “—” indicates that a binding interaction was not detected;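 also: competition of test compound with radioligand for binding to membranes from transfected cell lines, 1.5 h incubation at room temperature, filter-bound radioactivity read by liquid scintillation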
5HT7 receptor, sequence (P34969 whole entry): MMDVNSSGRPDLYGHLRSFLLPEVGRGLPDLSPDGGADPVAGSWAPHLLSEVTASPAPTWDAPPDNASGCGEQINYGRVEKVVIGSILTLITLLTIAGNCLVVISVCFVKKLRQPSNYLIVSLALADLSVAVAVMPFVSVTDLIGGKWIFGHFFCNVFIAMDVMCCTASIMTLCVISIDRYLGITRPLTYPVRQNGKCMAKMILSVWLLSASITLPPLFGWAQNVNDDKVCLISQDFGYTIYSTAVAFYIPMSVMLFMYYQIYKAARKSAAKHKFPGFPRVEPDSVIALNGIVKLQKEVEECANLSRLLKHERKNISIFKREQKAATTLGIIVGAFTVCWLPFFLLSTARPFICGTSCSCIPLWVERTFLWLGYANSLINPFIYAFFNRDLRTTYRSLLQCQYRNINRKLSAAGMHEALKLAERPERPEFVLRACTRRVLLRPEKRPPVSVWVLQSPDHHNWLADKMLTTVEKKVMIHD

[8] = target: Alpha1A adrenergic receptor (Homo sapiens (Human), UniProt P35348); test: Secondary radioligand binding assay, Alpha1A; set-up: key to Ki Alpha1A: “—” indicates that a binding interaction was not detected
Source text: (§1) 1. Secondary Radioligand Binding Assays The detailed experimental protocols for the radioligand and functional receptor assays are available on the NIMH PDSP website at http://pdsp.med.unc.edu/UNC-CH %20Protocol %20Book.pdf. Raw data (dpm) representing total radioligand binding (i.e. specific+non-specific binding) are plotted as a function of the logarithm of the molar concentration of the competitor (i.e. test or reference compound). […] C. Adrenergic Receptors: α1A, α1B, α2A, α2B, α2C, β1, β2, β3 Assay Buffers: For α1 receptors, α1 Binding Buffer (20 mM Tris-HCl, 145 mM NaCl, pH 7.4); for α2 receptors, α2 Binding Buffer (50 mM Tris-HCl, 5 mM MgCl2, pH 7.7); for β receptors, β Binding Buffer (50 mM Tris-HCl, 3 mM MnCl2, pH 7.7) Membrane Fraction Source: Transiently or stably transfected cell lines (e.g. HEK293, COS, CHO, NIH3T3) Protocol adapted from Arango et al. […] (1990), Gen. Psychiatry, 47: 1038-1047. The method is carried out in the manner described for the serotonin receptor assay above, except where described below. Eleven dilutions (5× assay concentration) of the test and reference (see Table 20) compounds are prepared in the appropriate buffer by serial dilution, as previously described. Radioligand is diluted to five times the assay concentration (see Table 21) in the appropriate buffer. […] Four rapid 500-μl washes are performed with chilled distilled water (for α1 and β receptors) or 0.1% polyethyleneimine (for α2 receptors) to reduce non-specific binding. Filters are placed in 6 ml scintillation tubes and allowed to dry overnight and the samples are treated to obtain data as described above. [table]

[9] = target: Alpha1B adrenergic receptor (Homo sapiens (Human), UniProt P35368); test: Secondary radioligand binding assay, Alpha1B; set-up: key to Ki Alpha1B: “—” indicates that a binding interaction was not detected
Alpha1B adrenergic receptor, sequence (P35368 whole entry): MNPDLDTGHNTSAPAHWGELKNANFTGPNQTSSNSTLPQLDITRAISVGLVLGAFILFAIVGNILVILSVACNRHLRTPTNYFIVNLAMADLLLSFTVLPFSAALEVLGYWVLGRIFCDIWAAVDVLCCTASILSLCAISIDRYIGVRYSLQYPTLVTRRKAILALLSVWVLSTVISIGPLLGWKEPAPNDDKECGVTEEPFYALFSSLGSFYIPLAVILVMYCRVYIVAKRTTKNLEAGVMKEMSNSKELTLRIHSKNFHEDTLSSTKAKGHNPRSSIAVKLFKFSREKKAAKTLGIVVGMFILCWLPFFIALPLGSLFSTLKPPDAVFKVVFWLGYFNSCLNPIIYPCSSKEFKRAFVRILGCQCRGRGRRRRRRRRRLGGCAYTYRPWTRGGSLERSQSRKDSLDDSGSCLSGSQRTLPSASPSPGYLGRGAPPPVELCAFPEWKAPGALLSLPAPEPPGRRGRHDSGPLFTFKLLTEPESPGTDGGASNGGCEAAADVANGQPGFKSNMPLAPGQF
Source text: as §1

[10] = target: dopamine D1 receptor (Homo sapiens (Human), UniProt P21728); test: Secondary radioligand binding assay, D1; set-up: key to Ki D1: “—” indicates that a binding interaction was not detected
dopamine D1 receptor, sequence (P21728 whole entry): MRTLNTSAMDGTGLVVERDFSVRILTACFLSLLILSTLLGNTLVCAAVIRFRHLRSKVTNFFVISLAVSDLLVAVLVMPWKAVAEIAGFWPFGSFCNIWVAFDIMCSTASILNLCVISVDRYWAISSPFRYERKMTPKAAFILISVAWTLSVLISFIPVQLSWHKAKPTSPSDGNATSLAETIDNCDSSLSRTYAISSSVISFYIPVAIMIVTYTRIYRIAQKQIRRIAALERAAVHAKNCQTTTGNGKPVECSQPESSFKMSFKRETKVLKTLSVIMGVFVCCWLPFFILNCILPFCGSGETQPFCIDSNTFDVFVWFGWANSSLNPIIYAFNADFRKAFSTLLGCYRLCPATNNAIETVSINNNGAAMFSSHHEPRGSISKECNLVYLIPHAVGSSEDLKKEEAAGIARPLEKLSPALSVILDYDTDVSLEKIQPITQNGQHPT
Protocol: (§2) 1. Secondary Radioligand Binding Assays
(§3) The detailed experimental protocols for the radioligand and functional receptor assays are available on the NIMH PDSP website at http://pdsp.med.unc.edu/UNC-CH %20Protocol %20Book.pdf.
(§4) Radioligand is diluted to five times the assay concentration (see Table 18) in Standard Binding Buffer. Typically, the assay concentration of radioligand is a value between one half the KD and the KD of a particular radioligand at its target. 50 μl aliquots of radioligand are dispensed into the wells of a 96-well plate containing 100 μl of Standard Binding Buffer. Then, duplicate 50 μl aliquots of the test and reference compound dilutions are added.
(§5) The 250 μl reactions are incubated at room temperature and shielded from light (to prevent photolysis of light-sensitive ligands) for 1.5 hours, then harvested by rapid filtration onto Whatman GF/B glass fiber filters pre-soaked with 0.3% polyethyleneimine using a 96-well Brandel harverster. Four rapid 500 μl washes are performed with chilled Standard Binding Buffer to reduce non-specific binding. Filters are placed in 6 ml scintillation tubes and allowed to dry overnight. The next day, 4 ml of EcoScint scintillation cocktail (National Diagnostics) are added to each tube. The tubes are capped, labeled, and counted by liquid scintillation counting. […] The filter mats are dried, then scintillant is melted onto the filters and the radioactivity retained on the filters is counted in a Microbeta scintillation counter.
(§6) Raw data (dpm) representing total radioligand binding (i.e. specific+non-specific binding) are plotted as a function of the logarithm of the molar concentration of the competitor (i.e. test or reference compound).
(§7) B. Dopamine Receptors: D1, D2, D3, D4, D5 Assay Buffers: Dopamine Binding Buffer (50 mM NaCl, 50 mM HEPES-HCl, 5 mM MgCl2, 0.5 mM EDTA, pH 7.4) Membrane Fraction Source: Transiently or stably transfected cell lines (e.g. HEK293, COS, CHO, NIH3T3)
(§8) The method is carried out in the manner described for the serotonin receptor assay above. Eleven dilutions (5× assay concentration) of the test and reference (see Table 19) compounds are prepared in Dopamine Binding Buffer by serial dilution, as previously described. Radioligand is diluted to five times the assay concentration (see Table 20) in Dopamine Binding Buffer.

[11] = target: dopamine D2 receptor (Homo sapiens (Human), UniProt P14416); test: Secondary radioligand binding assay, D2; set-up: key to Ki D2: “—” indicates that a binding interaction was not detected
dopamine D2 receptor, sequence (P14416 whole entry, species assumed): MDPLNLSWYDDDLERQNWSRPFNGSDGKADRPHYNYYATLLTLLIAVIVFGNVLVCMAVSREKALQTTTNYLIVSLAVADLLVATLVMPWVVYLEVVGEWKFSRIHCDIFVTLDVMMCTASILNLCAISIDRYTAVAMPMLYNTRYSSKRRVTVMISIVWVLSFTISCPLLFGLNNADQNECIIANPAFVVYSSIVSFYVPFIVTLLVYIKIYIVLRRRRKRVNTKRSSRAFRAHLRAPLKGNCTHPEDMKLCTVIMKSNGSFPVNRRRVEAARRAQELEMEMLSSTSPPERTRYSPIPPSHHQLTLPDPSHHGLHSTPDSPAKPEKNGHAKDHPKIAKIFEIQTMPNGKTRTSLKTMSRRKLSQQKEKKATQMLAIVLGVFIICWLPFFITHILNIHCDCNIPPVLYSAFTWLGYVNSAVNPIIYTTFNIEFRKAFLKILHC
Protocol: as §2, §3, §4, §5, §6, §7, §8

[12] = target: dopamine D3 receptor (Homo sapiens (Human), UniProt P35462); test: Secondary radioligand binding assay, D3; set-up: key to Ki D3: “—” indicates that a binding interaction was not detected
dopamine D3 receptor, sequence (P35462 whole entry, species assumed): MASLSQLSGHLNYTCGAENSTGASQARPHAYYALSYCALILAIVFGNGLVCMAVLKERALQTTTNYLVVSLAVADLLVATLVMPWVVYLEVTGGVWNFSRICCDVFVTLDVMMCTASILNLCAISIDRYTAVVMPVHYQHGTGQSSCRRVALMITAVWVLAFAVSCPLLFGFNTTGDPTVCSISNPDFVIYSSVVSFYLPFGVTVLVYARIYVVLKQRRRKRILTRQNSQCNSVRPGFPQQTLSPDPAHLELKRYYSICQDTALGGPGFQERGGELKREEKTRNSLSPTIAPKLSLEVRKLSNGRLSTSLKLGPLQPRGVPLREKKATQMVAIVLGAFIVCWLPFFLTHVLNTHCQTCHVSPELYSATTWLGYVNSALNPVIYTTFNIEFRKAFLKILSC
Protocol: as §2, §3, §4, §5, §6, §7, §8

Compound | Ki 5HT1d [1] | Ki 5HT1e [2] | Ki 5HT2b [3] | Ki 5HT3 [4] | Ki 5HT5 [5] | Ki 5HT6 [6] | Ki 5HT7 [7] | Ki Alpha1A [8] | Ki Alpha1B [9] | Ki [10] [µM] | Ki D2 [11] | Ki D3 [12] | Ki [3] [µM] | Ki D1 [10] | Ki [1] [µM] | Ki [7] [µM] | Ki [8] [µM] | Ki [9] [µM] | Ki [11] [µM] | Ki [12] [µM]
Cc1ncccc1OC[C@@H]1CN(CC(=O)N2c3ccccc3C[C@H]2C)CCO1 [Compound 61] | — | — | — | — | — | — | — | — | — | > 10 | — | — |  |  |  |  |  |  |  | 
O=C(CN1CCO[C@H](COc2cccnc2)C1)N1CCc2ccccc21 [Compound 20s, (S)-1-(Indolin-1-yl)-2-(2-((pyridin-3-yloxy)methyl)morpholino)ethanone] | — | — |  | — | — | — | — | — | — |  | — | — | 7.64 | — |  |  |  |  |  | 
Cc1ccnc(OC[C@H]2CN(CC(=O)N3CCc4ccccc43)CCO2)c1 [Compound 16r] | — | — | — | — | — | — | — | — | — | > 10 | — | — |  |  |  |  |  |  |  | 
Cc1ccnc(C)c1OC[C@H]1CN(CCN2CCc3ccccc32)CCO1 [Compound 29r, (R)-2-(((2,4-Dimethylpyridin-3-yl)oxy)methyl)-4-(2-(indolin-1-yl)ethyl)morpholine] | — | — |  | — | — | — | — | — | — |  | — | — | 1.33 | — |  |  |  |  |  | 
Cc1ccnc(OC[C@H]2CN(CCN3CCc4ccccc43)CCO2)c1 [Compound 17r, (R)-4-(2-(Indolin-1-yl)ethyl)-2-(((4-methylpyridin-2-yl)oxy)methyl)morpholine] | — | — |  | — | — | — | — | — | — | > 10 | — | — | 0.788 |  |  |  |  |  |  | 
c1ccc(OC[C@@H]2CN(CCN3CCc4ccccc43)CCO2)cc1 [Compound 19s, (S)-4-(2-(Indolin-1-yl)ethyl)-2-(phenoxymethyl)morpholine] |  | — |  | — | — | — |  |  |  | 1.35 |  |  | 1.44 |  | 0.59 | 0.468 | 2.72 | 7.21 | 0.342 | 2.83
Cc1ccnc(OC[C@H]2CN(CC(=O)N3c4ccccc4CC3C)CCO2)c1 (stereo partly drawn) [Compound 70] | — | — |  | — | — | — | — | — | — | > 10 | — | — | 3.46 |  |  |  |  |  |  | 
Cc1ncccc1OC[C@H]1CN(CC(=O)N2c3ccccc3C[C@H]2C)CCO1 [Compound 63] | — | — | — | — | — | — | — | — | — |  | — | — |  | — |  |  |  |  |  | 
c1cncc(OC[C@@H]2CN(CCN3CCc4ccccc43)CCO2)c1 [Compound 21s, (S)-4-(2-(Indolin-1-yl)ethyl)-2-((pyridin-3-yloxy)methyl)morpholine] | — | — | — | — | — | — | — | — | — | > 10 |  |  |  |  |  |  |  |  | > 10 | 8.36
O=C(CN1CCO[C@H](COc2ccccc2)C1)N1CCc2ccccc21 [Compound 18s, (S)-1-(Indolin-1-yl)-2-(2-(phenoxymethyl)morpholino)ethanone] | — | — |  | — | — | — | — | — | — |  | — | — | 6.42 | — |  |  |  |  |  | 
Cc1ccc(OC[C@@H]2CN(CCN3CCc4ccccc43)CCO2)cn1 [Compound 28s, (S)-4-(2-(Indolin-1-yl)ethyl)-2-(((6-methylpyridin-3-yl)oxy)methyl)morpholine] | — | — | — | — | — | — | — | — | — |  | — | — |  | — |  |  |  |  |  | 
Cc1ncccc1OC[C@H]1CN(CC(=O)N2c3ccccc3CC2C)CCO1 (stereo partly drawn) [Compound 62] | — | — |  | — | — | — | — | — | — |  | — | — | 5.18 | — |  |  |  |  |  | 
Cc1ncccc1OC[C@@H]1CN(CC(=O)N2c3ccccc3CC2C)CCO1.Cl (stereo partly drawn) [Compound 60] | — | — |  | — | — | — | — | — | — | > 10 | — | — | 4.61 |  |  |  |  |  |  | 
